Tested on: A. fumigatus TIMM1728
Experiment: Defensive effect against experimental Aspergillosis infection in neutropenic mice (prolonging life)
Assay type: in vivo
Conditions: CDF1 female mice made neutropenic with cyclophosphamide; intravenous administration, 5 times; survival recorded for 10 days after infection
Procedure: Method: 6-week-old CDF1 female mice (n=5) were allowed to have neutropenia by intraperitoneally administering 200 mg/kg of cyclophosphamide, and after 4 days, 0.2 ml liquid of frozen and stored A. fumigatus TIMM1728 conidia, diluted 1000-fold, was inoculated into the tail veins of the mice (6×10^4 CFU/mouse). Compound 12 was dissolved in 5% saccharide solution (aqueous glucose solution) and intravenously administered into the mice 5 times, that is, once in 2 hours after the infection and daily twice for 2 days after the infection. The number of living mice was recorded for 10 days after the infection, to evaluate the effect of prolonging their life.

Q: Which “Defensive effect (ED50)” value does the source give for “4-acetoxymethyl-1-[(2R,3R)-2-(2,4-difluorophenyl)-2-hydroxy-3-[2-oxo-3-[4-(1H-tetrazol-1-yl)phenyl]-1-imidazolidinyl]butyl]-1H-1,2,4-triazolium chloride [Compound 12]” here?
A: The value was 1.7 mg/kg.

— patent US6583164B1, “Antimycotic drug composition” (Takeda Chemical Industries, Ltd., priority 1998, dated 2003)
